What was measured:
[1] = test system: SHBG (Sex Hormone Binding Globulin) from serum of pregnant volunteers; assay: SHBG assay: competitive displacement of tritiated oestradiol from antibody-captured SHBG on microtiter plate; design: species or system human; settings: for displacement of oestradiol / affinity to SHBG (in words): discussion of the SHBG assay results; for Activity (score for the displacement of tritiated oestradiol): displacement of 3H-oestradiol from SHBG, related to testosterone standard curve
Text: Sub figure 1a: HPAA = Hypothalamus-Pituitary-Adrenal-Axis; CRH = Corticotrophin Releasing Hormone; ACTH = Adrenocorticotrophic Hormone; Adrenal = adrenal gland. Sub figure 1b: HPTeA = Hypothalamus-Pituitary-Testis-Axis; LHRH = Luteinizing Hormone Releasing Hormone; LH = Luteinizing Hormone. […] The values are the averages of 11 measurements. […] Plotted out is the bound fraction as a percentage of the total quantity of added ^3H-E2 against the concentration of the test compound.
The SHBG assay was developed for detecting a possible oestrogenic activity of xenobiotic substances. As main component use was made of SHBG from serum of pregnant volunteers in the third trimester of pregnancy. Additionally use was made of commercially available polyclonal anti-SHBG antibody (DAKO) to isolate SHBG from serum on a microtiter plate. […] As standard testosterone (Sigma-Aldrich B.V., Zwijndrecht, the Netherlands) was used in a concentration series.
All compounds to be analyzed are related to the testosterone standard curve. For the analysis of an oestrogenic effect various compounds were tested in the SHBG assay, including endogenous steroids, pharmaceutical substances, pesticides and industrial waste products (alkyl phenols). […]

SHBG (post partum serum) = settings: competition with 3H-5-alpha-DHT; cited from earlier work
SHBG = settings: cited from earlier work

Compound: C#CC1(O)CC[C@H]2[C@@H]3CCC4=CC(=O)CC[C@@H]4[C@H]3CC[C@@]21CC (mixture of isomers) [Norgestrel, reference compound]
- displacement of oestradiol / affinity to SHBG (in words) [1]: high affinity
- Activity (score for the displacement of tritiated oestradiol) [1]: + + (strong displacement)

Compound: O=C(O)COc1ccc(Cl)cc1Cl [2.4-D]
- Activity (score for the displacement of tritiated oestradiol) [1]: + (moderate displacement)

Compound: C[C@H]1C[C@@H]2[C@H]([C@@H](O)C[C@@]3(C)[C@H]2CC[C@]3(O)C(=O)CO)[C@@]2(C)C=CC(=O)C=C12 [6-alpha-methylprednisolone, reference compound]
- Activity (score for the displacement of tritiated oestradiol) [1]: + (moderate displacement)

Compound: CNC(=O)O/N=C/C(C)(C)SC [Aldicarb]
- displacement of oestradiol / affinity to SHBG (in words) [1]: ambiguous result
- Activity (score for the displacement of tritiated oestradiol) [1]: +/-

Compound: C[C@]12CC[C@@H](O)C[C@@H]1CC[C@@H]1[C@@H]2CC[C@]2(C)C(=O)CC[C@@H]12 [Andosterone, reference compound]
- Activity (score for the displacement of tritiated oestradiol) [1]: + (moderate displacement)

Compound: CCNc1nc(Cl)nc(NC(C)C)n1 [Atrazine]
- displacement of oestradiol / affinity to SHBG (in words) [1]: no activity at all
- Activity (score for the displacement of tritiated oestradiol) [1]: - (no displacement)
- binding to SHBG (SHBG (post partum serum)): not found

Compound: CC(C)(c1ccc(O)cc1)c1ccc(O)cc1 [Bisphenol-A]
- displacement of oestradiol / affinity to SHBG (in words) [1]: remarkably strong effect
- Activity (score for the displacement of tritiated oestradiol) [1]: + + (strong displacement)

Compound: CC/C(=C(/CC)c1ccc(O)cc1)c1ccc(O)cc1 [DES, reference compound]
- displacement of oestradiol / affinity to SHBG (in words) [1]: high affinity
- Activity (score for the displacement of tritiated oestradiol) [1]: + + (strong displacement)

Compound: C[C@]12CC[C@H](O)CC1=CC[C@@H]1[C@@H]2CC[C@]2(C)C(=O)CC[C@@H]12 [Dehydro-iso-andosterone, reference compound]
- Activity (score for the displacement of tritiated oestradiol) [1]: + (moderate displacement)

Compound: CN(C)S(=O)(=O)N(SC(F)(Cl)Cl)c1ccccc1 [Dichlofluanide]
- Activity (score for the displacement of tritiated oestradiol) [1]: + (moderate displacement)

Compound: O=C(O)CNCP(=O)(O)O [Glyphosate]
- displacement of oestradiol / affinity to SHBG (in words) [1]: ambiguous result
- Activity (score for the displacement of tritiated oestradiol) [1]: +/-

Compound: CCCCC(O)(Cn1cncn1)c1ccc(Cl)cc1Cl (centres unmarked) [Hexaconazole]
- displacement of oestradiol / affinity to SHBG (in words) [1]: ambiguous result
- Activity (score for the displacement of tritiated oestradiol) [1]: +/-

Compound: CCOC(=O)CC(SP(=S)(OC)OC)C(=O)OCC (centres unmarked) [Malathion]
- Activity (score for the displacement of tritiated oestradiol) [1]: + (moderate displacement)

Compound: C[C@]12CC[C@@H]3c4ccc(O)cc4CC[C@H]3[C@@H]1CC[C@@H]2O [Oestradiol]
- affinity for SHBG (SHBG; association constant, see Dunn et al. 1981): 7e-10 M⁻¹

Compound: CC1(C)C(C=C(Cl)Cl)C1C(=O)OCc1cccc(Oc2ccccc2)c1 (centres unmarked) [Permethrin]
- displacement of oestradiol / affinity to SHBG (in words) [1]: clear displacement
- Activity (score for the displacement of tritiated oestradiol) [1]: + + (strong displacement)

Compound: CCNc1nc(Cl)nc(NCC)n1 [Simazine]
- displacement of oestradiol / affinity to SHBG (in words) [1]: ambiguous result
- Activity (score for the displacement of tritiated oestradiol) [1]: + /-

Compound: CC(C)(C)C(O)(CCc1ccc(Cl)cc1)Cn1cncn1 (centres unmarked) [Tebuconazole]
- displacement of oestradiol / affinity to SHBG (in words) [1]: ambiguous result
- Activity (score for the displacement of tritiated oestradiol) [1]: +/-

Compound: C[C@]12CC[C@H]3[C@@H](CCC4=CC(=O)CC[C@@]43C)[C@@H]1CC[C@@H]2O [Testosterone]
- Activity (score for the displacement of tritiated oestradiol) [1]: + + (strong displacement)
- Kd (SHBG; see Dunn et al. 1981, read-out: affinity for SHBG (converted)): 0.0625 µM
- affinity to SHBG relative to oestradiol (SHBG; testosterone versus oestradiol): approximately 3 times

Compound: C=CC1(C)OC(=O)N(c2cc(Cl)cc(Cl)c2)C1=O (centres unmarked) [Vinclozolin]
- Activity (score for the displacement of tritiated oestradiol) [1]: + (moderate displacement)

Compound: ClC1=C(Cl)[C@]2(Cl)[C@@H]3[C@@H]4C[C@@H]([C@H]5O[C@@H]45)[C@@H]3[C@@]1(Cl)C2(Cl)Cl [dieldrin]
- binding to SHBG (SHBG (post partum serum)): not found

Compound: COc1ccc(C(c2ccc(OC)cc2)C(Cl)(Cl)Cl)cc1 [methoxychlor]
- binding to SHBG (SHBG (post partum serum)): not found

Compound: Clc1ccc(C(c2ccccc2Cl)C(Cl)(Cl)Cl)cc1 (centres unmarked) [o,p'-DDT]
- binding to SHBG (SHBG (post partum serum)): showed binding

Compound: ClC(Cl)=C(c1ccc(Cl)cc1)c1ccc(Cl)cc1 [p,p'-DDE]
- binding to SHBG (SHBG (post partum serum)): not found

Compound: Clc1ccc(C(c2ccc(Cl)cc2)C(Cl)(Cl)Cl)cc1 [p,p'-DDT]
- binding to SHBG (SHBG (post partum serum)): not found

Compound: Oc1c(Cl)c(Cl)c(Cl)c(Cl)c1Cl [pentachlorophenol]
- binding to SHBG (SHBG (post partum serum)): showed binding

Compound: Nonylphenol
- displacement of oestradiol / affinity to SHBG (in words) [1]: remarkably strong effect
- Activity (score for the displacement of tritiated oestradiol) [1]: + + (strong displacement)
- binding to SHBG (SHBG (post partum serum)): showed binding

Reference: patent EP1272854B1, “METHOD FOR DETECTING A HORMONE DISRUPTING ACTIVITY OF ENVIRONMENTAL POLLUTANTS” (Meulenberg, Petronella Mariette Maria, priority 2000, dated 2001)
